Assay [1] deals with T1, PKA catalytic subunit (Bos taurus, UniProt P00517).
T1 construct: gene PRKACA; native catalytic subunit purified from bovine heart PKA (P5511) by column chromatography
The assay is described as follows: fluorescence polarisation competition with compound […]. It is filed as binding.

Assay [2] has as its target T2, PKA (cAMP-dependent protein kinase), semi-pure tetramer (Bos taurus, UniProt P00517).
T2 construct: gene PRKACA; native, semi-pure from bovine heart; whole tetramer of two catalytic and two regulatory subunits; with cAMP-dependent protein kinase type II-alpha regulatory subunit
The assay is described as follows: fluorescence polarisation saturation binding, one-site fit. To be noted: read-out: binding constant.

Regarding `CC1CNCCN1S(=O)(=O)c1cccc2cnccc12` (centres unmarked) [H‐7], the IC50 in assay [1] amounted to 3.9 µM.
Take `CO[C@@H]1[C@H](N(C)CC(=O)NCCNC(=O)CCC(=O)NCCOCCOCCNC(=S)Nc2ccc(-c3c4ccc(=O)cc-4oc4cc(O)ccc34)c(C(=O)O)c2)C[C@H]2O[C@]1(C)n1c3ccccc3c3c4c(c5c6ccccc6n2c5c31)C(=O)NC4` [compound 8, 2‐(6‐Hydroxy‐3‐oxo‐3H‐xanthen‐9‐yl)‐5‐(3‐(2‐((5R,7R,8R,9S)‐8‐methoxy‐9‐methyl‐16‐oxo‐6,7,8,9,15,16‐hexahydro‐5H,14H‐17‐oxa‐4b,9a,15‐triaza‐5,9‐methanodibenzo[b,h]cyclonona[jkl]‐cyclopenta[e]‐as‐indacen‐7‐yl)‐4,9,12‐trioxo‐16,19‐dioxa‐2,5,8,13‐tetraazahenicosan‐21‐yl)thioureido)benzoic acid]: the Kd in assay [2] was 0.044 µM.

The values are drawn from paper PMC4949516 (Chemmedchem, 2016).
